Residues, ends and D or L forms follow the SMILES beside them.

The target of one experiment is T1, human noradrenaline transporter (hNET) (Homo sapiens, UniProt P23975).
T1 construct: expressed in transfected cells; host or cells: COS-7 cells (ATCC), transient transfection with metafectene
T1 sequence (P23975 whole entry): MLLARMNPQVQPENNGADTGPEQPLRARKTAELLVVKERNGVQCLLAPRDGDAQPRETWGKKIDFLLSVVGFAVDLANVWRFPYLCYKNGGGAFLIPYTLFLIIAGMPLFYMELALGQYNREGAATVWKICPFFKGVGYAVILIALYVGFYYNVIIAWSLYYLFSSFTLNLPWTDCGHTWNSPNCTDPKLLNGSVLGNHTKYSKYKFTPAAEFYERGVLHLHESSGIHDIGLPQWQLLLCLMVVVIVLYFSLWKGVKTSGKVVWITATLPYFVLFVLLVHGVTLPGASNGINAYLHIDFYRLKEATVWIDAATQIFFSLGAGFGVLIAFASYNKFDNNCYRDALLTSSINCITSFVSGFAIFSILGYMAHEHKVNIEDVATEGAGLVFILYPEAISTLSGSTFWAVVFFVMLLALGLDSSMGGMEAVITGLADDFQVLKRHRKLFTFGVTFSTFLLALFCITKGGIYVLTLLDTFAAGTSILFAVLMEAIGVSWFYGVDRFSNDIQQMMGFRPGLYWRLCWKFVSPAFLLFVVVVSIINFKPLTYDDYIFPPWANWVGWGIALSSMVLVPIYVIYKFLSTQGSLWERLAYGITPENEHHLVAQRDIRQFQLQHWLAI
Kind of experiment: biochemical. It counts as binding.
Conditions: not given
In the case of YNGVCCGYKLCRPC [compound 207], the “Av IC50 Displacement of 3H-nisoxetine from hNET” value is −2.00.
Still for that read-out and setting: to YNGVCCGYWLCHPC [compound 211] belongs −2.00.

The same experiment, now with this note: Av IC50 Displacement of 3H-nisoxetine from hNET.
As to `CC(C)C[C@@H]1NC(=O)[C@H](CCC(N)=O)NC(=O)[C@H](Cc2ccc(O)cc2)NC(=O)CNC(=O)[C@@H]2CSSC[C@H](NC1=O)C(=O)N[C@@H](Cc1c[nH]cn1)C(=O)N1CCC[C@H]1C(=O)N[C@H](C(N)=O)CSSC[C@H](NC(=O)[C@@H](NC(=O)CNC(=O)[C@@H](N)CC(N)=O)C(C)C)C(=O)N2` [compound 194] (HELM PEPTIDE1{N.G.V.C.C.G.Y.Q.L.C.H.P.C.[am]}$PEPTIDE1,PEPTIDE1,4:R3-13:R3|PEPTIDE1,PEPTIDE1,5:R3-10:R3$$$V2.0), the IC50 (usually the concentration at which inhibition is half-maximal) is 123000 nM.
For the compound `CC(C)C[C@@H]1NC(=O)[C@H](CCCCN)NC(=O)[C@H](Cc2ccc(O)cc2)NC(=O)[C@@H](CCC(=O)O)NC(=O)[C@@H]2CSSC[C@H](NC1=O)C(=O)N[C@@H](Cc1c[nH]cn1)C(=O)N1CCC[C@H]1C(=O)N[C@H](C(N)=O)CSSC[C@H](NC(=O)[C@@H](NC(=O)CNC(=O)[C@@H](N)CC(N)=O)C(C)C)C(=O)N2` [compound 183], the half-maximal inhibitory concentration (IC50) is 61700 nM.
The compound `CC(C)C[C@@H]1NC(=O)[C@H](CCCCN)NC(=O)[C@H](Cc2ccc(O)cc2)NC(=O)CNC(=O)[C@@H]2CSSC[C@H](NC1=O)C(=O)N[C@@H](Cc1c[nH]cn1)C(=O)N1CCC[C@H]1C(=O)N[C@H](C(N)=O)CSSC[C@H](NC(=O)[C@@H](NC(=O)[C@H](CCCCN)NC(=O)[C@H](CC(N)=O)NC(=O)[C@@H](N)Cc1ccc(O)cc1)C(C)C)C(=O)N2` [compound 110] (HELM PEPTIDE1{Y.N.K.V.C.C.G.Y.K.L.C.H.P.C.[am]}$PEPTIDE1,PEPTIDE1,5:R3-14:R3|PEPTIDE1,PEPTIDE1,6:R3-11:R3$$$V2.0) had an IC50 of 977 nM.
Still for that read-out and setting: then `CC(C)C[C@@H]1NC(=O)[C@H](CCCCN)NC(=O)[C@H](Cc2ccc(O)cc2)NC(=O)CNC(=O)[C@@H]2CSSC[C@H](NC1=O)C(=O)N[C@@H](CCC(N)=O)C(=O)N1CCC[C@H]1C(=O)N[C@H](C(N)=O)CSSC[C@H](NC(=O)[C@@H](NC(=O)CNC(=O)[C@H](CC(N)=O)NC(=O)[C@@H](N)Cc1ccc(O)cc1)C(C)C)C(=O)N2` [compound 163] (HELM PEPTIDE1{Y.N.G.V.C.C.G.Y.K.L.C.Q.P.C.[am]}$PEPTIDE1,PEPTIDE1,5:R3-14:R3|PEPTIDE1,PEPTIDE1,6:R3-11:R3$$$V2.0), with 6920 nM.
Same read-out and setting: then `CC(C)C[C@@H]1NC(=O)[C@H](CCCCN)NC(=O)[C@H](Cc2ccc(O)cc2)NC(=O)CNC(=O)[C@@H]2CSSC[C@H](NC1=O)C(=O)N[C@@H](Cc1c[nH]cn1)C(=O)N[C@@H](C)C(=O)N[C@H](C(N)=O)CSSC[C@H](NC(=O)[C@@H](NC(=O)CNC(=O)[C@H](CCCNC(=N)N)NC(=O)[C@@H](N)Cc1c[nH]c3ccccc13)C(C)C)C(=O)N2` [compound 54], with 158 nM.
With `CC(C)C[C@@H]1NC(=O)[C@H](C)NC(=O)[C@H](Cc2ccc(O)cc2)NC(=O)CNC(=O)[C@@H]2CSSC[C@H](NC1=O)C(=O)N[C@@H](Cc1c[nH]cn1)C(=O)N1CCC[C@H]1C(=O)N[C@H](C(N)=O)CSSC[C@H](NC(=O)[C@@H](NC(=O)CNC(=O)[C@@H](N)CC(N)=O)C(C)C)C(=O)N2` [compound 172], the IC50 was 10700 nM.
Compound `CC(C)C[C@@H]1NC(=O)[C@H](CCCCN)NC(=O)[C@H](Cc2ccc(O)cc2)NC(=O)CNC(=O)[C@@H]2CSSC[C@H](NC1=O)C(=O)N[C@@H](CCCNC(=N)N)C(=O)N[C@@H](C)C(=O)N[C@H](C(N)=O)CSSC[C@H](NC(=O)[C@@H](NC(=O)CNC(=O)[C@H](CC(N)=O)NC(=O)[C@@H](N)Cc1c[nH]c3ccccc13)C(C)C)C(=O)N2` [compound 69] (HELM PEPTIDE1{W.N.G.V.C.C.G.Y.K.L.C.R.A.C.[am]}$PEPTIDE1,PEPTIDE1,5:R3-14:R3|PEPTIDE1,PEPTIDE1,6:R3-11:R3$$$V2.0) gave an IC50 of 219 nM.
Still for that read-out and setting: then `CC(C)C[C@@H]1NC(=O)CNC(=O)[C@@H]2CSSC[C@H](NC(=O)[C@H](CC(C)C)NC(=O)[C@H](CCCCN)NC1=O)C(=O)N[C@@H](Cc1c[nH]cn1)C(=O)N1CCC[C@H]1C(=O)N[C@H](C(N)=O)CSSC[C@H](NC(=O)[C@@H](NC(=O)CNC(=O)[C@H](CC(N)=O)NC(=O)[C@@H](N)Cc1ccc(O)cc1)C(C)C)C(=O)N2` [compound 171] (HELM PEPTIDE1{Y.N.G.V.C.C.G.L.K.L.C.H.P.C.[am]}$PEPTIDE1,PEPTIDE1,5:R3-14:R3|PEPTIDE1,PEPTIDE1,6:R3-11:R3$$$V2.0), with 10700 nM; and `CC(C)C[C@@H]1NC(=O)[C@H](CCCCN)NC(=O)[C@H](CC(N)=O)NC(=O)CNC(=O)[C@@H]2CSSC[C@H](NC1=O)C(=O)N[C@@H](Cc1c[nH]cn1)C(=O)N1CCC[C@H]1C(=O)N[C@H](C(N)=O)CSSC[C@H](NC(=O)[C@@H](NC(=O)CNC(=O)[C@H](CC(N)=O)NC(=O)[C@@H](N)Cc1ccc(O)cc1)C(C)C)C(=O)N2` [compound 184] (HELM PEPTIDE1{Y.N.G.V.C.C.G.N.K.L.C.H.P.C.[am]}$PEPTIDE1,PEPTIDE1,5:R3-14:R3|PEPTIDE1,PEPTIDE1,6:R3-11:R3$$$V2.0), with 79400 nM.
Regarding `CC(C)C[C@@H]1NC(=O)[C@H](CCCCN)NC(=O)[C@H](Cc2ccc(O)cc2)NC(=O)CNC(=O)[C@@H]2CSSC[C@H](NC1=O)C(=O)N[C@@H](CCCNC(=N)N)C(=O)N[C@@H](C)C(=O)N[C@H](C(N)=O)CSSC[C@H](NC(=O)[C@@H](NC(=O)CNC(=O)[C@H](CCCNC(=N)N)NC(=O)[C@@H](N)Cc1c[nH]c3ccccc13)C(C)C)C(=O)N2` [compound 38], the IC50 is 102 nM.
Same read-out and setting: to `CC(C)C[C@@H]1NC(=O)[C@H](CCCCN)NC(=O)[C@H](CCCCN)NC(=O)CNC(=O)[C@@H]2CSSC[C@H](NC1=O)C(=O)N[C@@H](Cc1c[nH]cn1)C(=O)N1CCC[C@H]1C(=O)N[C@H](C(N)=O)CSSC[C@H](NC(=O)[C@@H](NC(=O)CNC(=O)[C@H](CC(N)=O)NC(=O)[C@@H](N)Cc1ccc(O)cc1)C(C)C)C(=O)N2` [compound 201] (HELM PEPTIDE1{Y.N.G.V.C.C.G.K.K.L.C.H.P.C.[am]}$PEPTIDE1,PEPTIDE1,5:R3-14:R3|PEPTIDE1,PEPTIDE1,6:R3-11:R3$$$V2.0) belongs 437000 nM; to `CC(C)C[C@@H]1NC(=O)[C@H](CCCCN)NC(=O)[C@H](Cc2ccc(O)cc2)NC(=O)CNC(=O)[C@@H]2CSSC[C@H](NC1=O)C(=O)N[C@@H](Cc1c[nH]cn1)C(=O)N1CCC[C@H]1C(=O)N[C@H](C(N)=O)CSSC[C@H](NC(=O)[C@@H](NC(=O)[C@H](CCCNC(=N)N)NC(=O)[C@H](CC(N)=O)NC(=O)[C@@H](N)Cc1ccc(O)cc1)C(C)C)C(=O)N2` [compound 118] (HELM PEPTIDE1{Y.N.R.V.C.C.G.Y.K.L.C.H.P.C.[am]}$PEPTIDE1,PEPTIDE1,5:R3-14:R3|PEPTIDE1,PEPTIDE1,6:R3-11:R3$$$V2.0), 1170 nM.
Consider `CC(C)C[C@@H]1NC(=O)[C@H](CCCCN)NC(=O)[C@H](Cc2ccc(O)cc2)NC(=O)CNC(=O)[C@@H]2CSSC[C@H](NC1=O)C(=O)N[C@@H](Cc1c[nH]cn1)C(=O)N1CCC[C@H]1C(=O)N[C@H](C(N)=O)CSSC[C@H](NC(=O)[C@@H](NC(=O)CNC(=O)[C@H](CC(N)=O)NC(=O)[C@@H](N)Cc1ccc(O)cc1)C(C)C)C(=O)N2` [compound 116], for which the IC50 is 1120 nM.
The same measure, in the same setting: then `CC(C)C[C@H](NC(=O)[C@H](CC(=O)O)NC(=O)[C@H](CCCCN)NC(=O)[C@@H](N)Cc1c[nH]c2ccccc12)C(=O)N[C@H]1CSSC[C@@H](C(N)=O)NC(=O)[C@@H]2CCCN2C(=O)[C@H](Cc2c[nH]c3ccccc23)NC(=O)[C@@H]2CSSC[C@H](NC1=O)C(=O)NCC(=O)N[C@@H](Cc1ccc(O)cc1)C(=O)N[C@@H](CCCCN)C(=O)N[C@@H](CC(C)C)C(=O)N2` [compound 90] (HELM PEPTIDE1{W.K.D.L.C.C.G.Y.K.L.C.W.P.C.[am]}$PEPTIDE1,PEPTIDE1,5:R3-14:R3|PEPTIDE1,PEPTIDE1,6:R3-11:R3$$$V2.0), with 355 nM; and `CC(C)C[C@@H]1NC(=O)[C@H](Cc2c[nH]cn2)NC(=O)[C@H](Cc2ccc(O)cc2)NC(=O)CNC(=O)[C@@H]2CSSC[C@H](NC1=O)C(=O)N[C@@H](Cc1c[nH]cn1)C(=O)N1CCC[C@H]1C(=O)N[C@H](C(N)=O)CSSC[C@H](NC(=O)[C@@H](NC(=O)CNC(=O)[C@@H](N)CC(N)=O)C(C)C)C(=O)N2` [compound 181] (HELM PEPTIDE1{N.G.V.C.C.G.Y.H.L.C.H.P.C.[am]}$PEPTIDE1,PEPTIDE1,4:R3-13:R3|PEPTIDE1,PEPTIDE1,5:R3-10:R3$$$V2.0), with 47900 nM; and `CC(C)C[C@@H]1NC(=O)[C@H](CCCCN)NC(=O)[C@H](Cc2ccc(O)cc2)NC(=O)CNC(=O)[C@@H]2CSSC[C@H](NC1=O)C(=O)N[C@@H](Cc1c[nH]cn1)C(=O)N1CCC[C@H]1C(=O)N[C@H](C(N)=O)CSSC[C@H](NC(=O)[C@@H](NC(=O)[C@H](CO)NC(=O)[C@@H](N)CC(N)=O)C(C)C)C(=O)N2` [compound 156] (HELM PEPTIDE1{N.S.V.C.C.G.Y.K.L.C.H.P.C.[am]}$PEPTIDE1,PEPTIDE1,4:R3-13:R3|PEPTIDE1,PEPTIDE1,5:R3-10:R3$$$V2.0), with 4270 nM.
Still for that read-out and setting: to `CC(C)C[C@H](NC(=O)CNC(=O)[C@H](CCCNC(=N)N)NC(=O)[C@@H](N)Cc1c[nH]c2ccccc12)C(=O)N[C@H]1CSSC[C@@H](C(N)=O)NC(=O)CNC(=O)[C@H](CCCNC(=N)N)NC(=O)[C@@H]2CSSC[C@H](NC1=O)C(=O)NCC(=O)N[C@@H](Cc1ccc(O)cc1)C(=O)N[C@@H](CCCCN)C(=O)N[C@@H](CC(C)C)C(=O)N2` [compound 64] (HELM PEPTIDE1{W.R.G.L.C.C.G.Y.K.L.C.R.G.C.[am]}$PEPTIDE1,PEPTIDE1,5:R3-14:R3|PEPTIDE1,PEPTIDE1,6:R3-11:R3$$$V2.0; N-terminus and C-terminus assumed) belongs 191 nM.
Same read-out and setting: then `CC(C)C[C@@H]1NC(=O)[C@H](CCCCN)NC(=O)[C@H](Cc2ccc(O)cc2)NC(=O)CNC(=O)[C@@H]2CSSC[C@H](NC1=O)C(=O)N[C@@H](CCCNC(=N)N)C(=O)N1CCC[C@H]1C(=O)N[C@H](C(N)=O)CSSC[C@H](NC(=O)[C@@H](NC(=O)CNC(=O)[C@H](CC(N)=O)NC(=O)[C@@H](N)Cc1c[nH]c3ccccc13)C(C)C)C(=O)N2` [compound 60], with 178 nM.

(Values after US7507717B2 (Xenome Ltd., priority 2002, dated 2009).)
